# Read-outs that look alike come from different tables or passages of the source.
# Key:
# [1] = system: CYP1A2; conditions: cited from earlier work
# [2] = OC study 2: EE and LN PK with/without ritlecitinib 50 mg QD; type: in vivo, human; conditions: for AUC(0-inf) / AUC(0-t) / Cmax: female, human, plasma, oral; for Cmax: adjusted geometric mean (test), 1 Portia tablet on Day 10 of ritlecitinib 50 mg QD × 13 days, healthy females
# [3] = OC study 1: EE and LN PK with/without ritlecitinib 200 mg QD; type: in vivo, human; conditions: for AUC(0-inf) / Cmax / AUC(0-t): female, human, plasma, oral, healthy females; for AUC(0-inf): AUCinf; for AUC(0-t): AUClast
# [4] = target: T1, CYP2B6 (Homo sapiens, UniProt P20813); conditions: for Effect of ritlecitinib on efavirenz AUC0–72 and Cmax (in words): ritlecitinib 200 mg QD
# T1 sequence (P20813 1-491): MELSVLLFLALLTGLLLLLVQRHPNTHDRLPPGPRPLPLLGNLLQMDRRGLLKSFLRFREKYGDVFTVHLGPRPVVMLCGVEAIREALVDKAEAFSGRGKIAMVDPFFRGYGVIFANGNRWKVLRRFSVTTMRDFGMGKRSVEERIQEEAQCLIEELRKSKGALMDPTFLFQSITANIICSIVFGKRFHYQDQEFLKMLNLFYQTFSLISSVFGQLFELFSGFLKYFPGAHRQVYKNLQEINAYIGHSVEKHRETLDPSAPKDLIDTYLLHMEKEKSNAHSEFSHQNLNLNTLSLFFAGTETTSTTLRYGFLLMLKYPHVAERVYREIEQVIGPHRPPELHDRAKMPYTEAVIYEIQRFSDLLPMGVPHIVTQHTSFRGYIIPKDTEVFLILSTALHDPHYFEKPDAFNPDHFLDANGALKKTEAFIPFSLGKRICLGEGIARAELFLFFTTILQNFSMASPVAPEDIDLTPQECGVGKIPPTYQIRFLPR
# [5] = system: CYP3A; assay: Midazolam and efavirenz DDI study: midazolam PK with/without ritlecitinib
# [6] = cited from earlier work
# [7] = system: CYP3A; assay: Itraconazole DDI study: ritlecitinib PK with/without itraconazole; type: in vivo, human
# [8] = cited from earlier work; remark: listed apart in the source
# [9] = system: CYP3A4/5; assay: CYP time-dependent inhibition in human liver microsomes; type: in vitro ADME
# [10] = target: T2, CYP1A2 (Homo sapiens, UniProt P05177); assay: as above; type: in vitro ADME
# T2 sequence (P05177 1-516): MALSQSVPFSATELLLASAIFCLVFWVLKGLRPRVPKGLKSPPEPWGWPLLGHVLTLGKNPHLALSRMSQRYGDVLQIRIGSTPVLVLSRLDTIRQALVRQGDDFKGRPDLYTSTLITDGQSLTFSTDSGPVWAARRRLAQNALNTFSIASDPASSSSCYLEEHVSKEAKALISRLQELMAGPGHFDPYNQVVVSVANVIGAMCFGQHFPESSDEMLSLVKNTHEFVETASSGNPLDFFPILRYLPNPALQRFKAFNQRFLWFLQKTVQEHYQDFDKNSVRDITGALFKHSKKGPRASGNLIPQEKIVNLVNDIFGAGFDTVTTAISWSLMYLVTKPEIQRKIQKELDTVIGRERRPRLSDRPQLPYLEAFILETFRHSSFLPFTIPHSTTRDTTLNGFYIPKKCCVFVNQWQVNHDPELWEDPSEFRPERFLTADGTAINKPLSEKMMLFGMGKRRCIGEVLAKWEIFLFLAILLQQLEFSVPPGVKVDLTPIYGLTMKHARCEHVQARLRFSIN
# [11] = system: organic cation transporter 1 (OCT1); conditions: cited from earlier work
# [12] = system: CYP1A2; assay: Caffeine DDI study: caffeine PK with/without ritlecitinib; type: in vivo, human; conditions: from caffeine DDI at ritlecitinib 200 mg QD
# [13] = system: CYP; assay: Rifampicin DDI study: ritlecitinib PK with/without rifampicin; type: in vivo, human
# [14] = caffeine single dose with ritlecitinib 200 mg QD × 9 days, plasma
# [15] = caffeine with ritlecitinib 200 mg QD × 9 days vs alone
# [16] = caffeine with ritlecitinib 200 mg QD × 9 days vs alone, listed as caffeine
# [17] = adjusted geometric mean (reference), 1 Portia tablet (EE 30 μg and LN 150 μg) alone
# [18] = adjusted geometric mean (test), 1 Portia tablet (EE 30 μg and LN 150 μg) on Day 10 of ritlecitinib 200 mg QD × 11 days
# [19] = multiple ritlecitinib 200 mg QD doses
# [20] = efavirenz with ritlecitinib 200 mg QD × 11 days vs without
# [21] = efavirenz with ritlecitinib 200 mg QD × 11 days vs without, listed as efavirenz
# [22] = midazolam with ritlecitinib 200 mg QD × 11 days vs without
# [23] = midazolam with ritlecitinib 200 mg QD × 11 days vs without, listed as midazolam
# [24] = multiple 200-mg doses of itraconazole, ritlecitinib 30 mg
# [25] = ritlecitinib 30 mg with itraconazole 200 mg QD × 5 days vs alone
# [26] = ritlecitinib 50 mg with rifampicin 600 mg QD × 8 days vs alone
# [27] = ritlecitinib 50 mg with rifampicin 600 mg QD × 8 days vs alone, listed as ritlecitinib
compound,measurement,setting,value
"Cn1c(=O)c2c(ncn2C)n(C)c1=O [Caffeine, caffeine]","AUCinf, adjusted geometric mean (reference)","[1]; caffeine alone, plasma",15 660 ng h/mL
same,"AUClast, adjusted geometric mean (reference)","[1]; caffeine alone, plasma",14 780 ng h/mL
same,"Cmax, adjusted geometric mean (reference)","[1]; caffeine alone, plasma",2162 ng/mL
same,"AUCinf, adjusted geometric mean (test)",[1]; [14],41 530 ng h/mL
same,"AUClast, adjusted geometric mean (test)",[1]; [14],38 580 ng h/mL
same,"Cmax, adjusted geometric mean (test)",[1]; [14],2372 ng/mL
same,"AUClast, ratio (test/reference) of adjusted geometric means (90% CI)",[1]; [15],261.0 (232.5−293.1) %
same,"Cmax, ratio (test/reference) of adjusted geometric means (90% CI)",[1]; [15],109.7 (103.9−115.9) %
same,"AUCinf, ratio (test/reference) of adjusted geometric means (90% CI)",[1]; [16],265.1%
same,"Cmax, ratio (test/reference) of adjusted geometric means (90% CI)",[1]; [16],109.7%
same,Fold increase of caffeine AUCinf by ritlecitinib,[1]; ritlecitinib 200 mg QD,≈ 2.7 fold
same,Fold increase of caffeine Cmax by ritlecitinib,[1]; ritlecitinib 200 mg QD,~1.1 fold
same,Increase of caffeine AUCinf in the presence of ritlecitinib,[1]; ritlecitinib 200 mg QD,≈ 165%
same,Increase of caffeine Cmax in the presence of ritlecitinib,[1]; ritlecitinib 200 mg QD,≈ 10%
"C#C[C@]1(O)CC[C@H]2[C@@H]3CCc4cc(O)ccc4[C@H]3CC[C@@]21C [EE, ethinyl oestradiol]",AUC(0-inf),[2]; 50 mg,0.733 ng·h/mL
same,AUC(0-t),[2]; 50 mg,0.605 ng·h/mL
same,Cmax,[2]; 50 mg,0.0638 ng/mL
same,AUC(0-inf),[2]; 1 Portia tablet,0.747 ng·h/mL
same,AUC(0-t),[2]; 1 Portia tablet,0.658 ng·h/mL
same,Effect of ritlecitinib 50 mg QD on PK of OC steroid (in words),[2],did not produce a clinically meaningful change
same,Effect of ritlecitinib 50 mg QD on PK of OC steroid (in words),[2]; listed as ethinyl oestradiol,no relevant change
same,AUC(0-inf),[3]; [17],0.8 ng·h/mL
same,AUC(0-inf),[3]; [18],0.656 ng·h/mL
same,Cmax,[3]; [18],0.0606 ng/mL
same,Decrease of AUCinf following coadministration of ritlecitinib,[3]; [19],≈ 18%
same,Decrease of Cmax following coadministration of ritlecitinib,[3]; [19],≈ 12%
same,Effect of ritlecitinib 200 mg QD on PK of OC steroid (in words),[3]; ritlecitinib 200 mg QD,decreased
"O=C1Nc2ccc(Cl)cc2[C@@](C#CC2CC2)(C(F)(F)F)O1 [Efavirenz, efavirenz]","AUC0–72, ratio (test/reference) of adjusted geometric means (90% CI)",[4]; [20],99.7 (95.2–104.4) %
same,"AUClast, ratio (test/reference) of adjusted geometric means (90% CI)",[4]; [20],99.7 (95.3–104.4) %
same,"Cmax, ratio (test/reference) of adjusted geometric means (90% CI)",[4]; [20],88.2 (77.1–101.0) %
same,"AUC0–72, ratio (test/reference) of adjusted geometric means (90% CI)",[4]; [21],99.7%
same,"Cmax, ratio (test/reference) of adjusted geometric means (90% CI)",[4]; [21],88.2%
same,Effect of ritlecitinib on efavirenz AUC0–72 and Cmax (in words),[4],similar
same,Effect of ritlecitinib on efavirenz AUC0–72 and Cmax (in words),[4]; listed as efavirenz,did not produce clinically meaningful changes
"C#C[C@]1(O)CC[C@H]2[C@@H]3CCC4=CC(=O)CC[C@@H]4[C@H]3CC[C@@]21CC [LN, levonorgestrel]",AUC(0-t),[2]; 50 mg,29.6 ng·h/mL
same,Cmax,[2]; 50 mg,2.32 ng/mL
same,AUC(0-t),[2]; 1 Portia tablet,33.7 ng·h/mL
same,AUC(0-t),[3]; [17],23.8 ng·h/mL
same,AUC(0-t),[3]; [18],26.8 ng·h/mL
same,Cmax,[3]; [17],2.94 ng/mL
same,Cmax,[3]; [18],3.03 ng/mL
"Cc1ncc2n1-c1ccc(Cl)cc1C(c1ccccc1F)=NC2 [Midazolam, midazolam]","AUCinf, ratio (test/reference) of adjusted geometric means (90% CI)",[5]; [22],269.4 (216.1–335.9) %
same,"AUClast, ratio (test/reference) of adjusted geometric means (90% CI)",[5]; [22],269.3 (215.8–336.1) %
same,"Cmax, ratio (test/reference) of adjusted geometric means (90% CI)",[5]; [22],180.8 (148.1–220.6) %
same,"AUCinf, ratio (test/reference) of adjusted geometric means (90% CI)",[5]; [23],269.4%
same,"Cmax, ratio (test/reference) of adjusted geometric means (90% CI)",[5]; [23],180.8%
same,Fold increase of midazolam AUCinf in the presence of ritlecitinib,[5]; ritlecitinib 200 mg QD,2.7 fold
same,Fold increase of midazolam Cmax in the presence of ritlecitinib,[5]; ritlecitinib 200 mg QD,1.8 fold
same,Increase of midazolam AUCinf in the presence of ritlecitinib,[5]; ritlecitinib 200 mg QD,≈ 169%
same,Fold increase of midazolam AUCinf in the presence of ritlecitinib,"[5]; ritlecitinib 200 mg QD, listed as midazolam",≈ 2.7 fold
"C=CC(=O)N1C[C@H](Nc2ncnc3[nH]ccc23)CC[C@@H]1C [Ritlecitinib, ritlecitinib]",Contribution of any single pathway to metabolism,[6],≤ 25%
same,Predicted collective contribution of CYPs to metabolic disposition,[6],≈ 47%
same,Predicted contribution of glutathione conjugation to metabolic disposition,[6],≈ 24%
same,AUC(0-inf),"[7]; human, plasma, oral, 30 mg",268 ng·h/mL
same,AUC(0-t),"[7]; human, plasma, oral, 30 mg",264 ng·h/mL
same,Cmax,"[7]; human, plasma, oral, 30 mg",153 ng/mL
same,Effect of itraconazole on ritlecitinib Cmax (in words),[7]; [24],similar
same,Increase of ritlecitinib AUCinf with itraconazole,[7]; [24],≈ 15%
same,"AUCinf, ratio (test/reference) of adjusted geometric means (90% CI)",[7]; [25],115.1 (104.6–126.7) %
same,"AUClast, ratio (test/reference) of adjusted geometric means (90% CI)",[7]; [25],115.1 (104.4–126.7) %
same,"Cmax, ratio (test/reference) of adjusted geometric means (90% CI)",[7]; [25],102.5 (82.8–127.0) %
same,Half-life (t½) of ritlecitinib,"[8]; quoted for the study design, ref previous studies",< 2 h
same,Dose proportionality of exposure (in words),[8]; up to 200 mg,approximately dose‐proportionally
same,Time-dependent inhibition of CYP3A in vitro (in words),[9],time dependent inhibitor
same,Time-dependent inhibition of CYP1A2 in vitro (in words),[10],time dependent inhibitor
same,Inhibition of OCT1 (in words),[11],inhibitor
same,Classification as clinical CYP3A inhibitor,[5]; from midazolam DDI at ritlecitinib 200 mg QD,moderate inhibitor
same,Classification as clinical CYP1A2 inhibitor,[12],moderate inhibitor
same,Decrease of ritlecitinib AUCinf with rifampicin,"[13]; multiple rifampicin doses, ritlecitinib 50 mg",≈ 45%
same,"AUCinf, ratio (test/reference) of adjusted geometric means (90% CI)",[13]; [26],55.8 (51.9–59.9) %
same,"AUClast, ratio (test/reference) of adjusted geometric means (90% CI)",[13]; [26],55.7 (51.9–59.7) %
same,"Cmax, ratio (test/reference) of adjusted geometric means (90% CI)",[13]; [26],75.1 (63.3–89.1) %
same,"AUCinf, ratio (test/reference) of adjusted geometric means (90% CI)",[13]; [27],55.8%
same,"Cmax, ratio (test/reference) of adjusted geometric means (90% CI)",[13]; [27],75.1%
same,Clinical relevance of exposure change with rifampicin (in words),[13]; typical exposure range 0.5- to 2-fold of mean exposure,not decreased to clinically relevant levels
